Measured values taken from patent US10398142B2, “Polycationic amphiphiles as antimicrobial agents” (priority 2013, dated 2019).
Read-outs that look alike come from different tables or passages of the source.

Assays:
[1] = system: Enterococcus faecalis (OG1RF); assay: Minimum inhibitory concentration (MIC), broth microdilution; assay type: cell-based; details: read-out: MIC E. faecalis
Experimental: (§1) The term “minimum inhibitory concentration (MIC)” means the lowest concentration of an antimicrobial agent that will inhibit the visible growth of a microorganism after overnight incubation. MIC values against bacteria, for example, the Gram-positive Staphylococcus aureus and Enterococcus faecalis and the Gram-negative Escherichia coli and Pseudomonas aeruginosa were determined by standard methods.
(§2) With nearly three-dozen amphiphiles varying in structure and cationic nature synthesized, minimum inhibitory concentration (MIC) values against the Gram-positive Staphylococcus aureus and Enterococcus faecalis and the Gram-negative Escherichia coli and Pseudomonas aeruginosa were determined by standard methods. […] The commercially available antibacterial agent benzalkonium chloride (benzyldimethyldodecylammonium chloride, Bn,12) was tested for comparison. The broth microdilution for determining MIC values was performed as previously reported.
(§3) Different biological assays were performed. […] All cultures, with the exception of E. faecalis, were grown with shaking at 250 rpm.
(§4) Minimum inhibitory concentration (MIC) values against bacteria were measured using standard method. Compounds were serially diluted two-fold from an aqueous stock solution to yield twelve test concentrations. Overnight S. aureus, E. faecalis, E. coli, P. aeruginosa, CA-MRSA, and HA-MRSA cultures diluted to ca. 10^6 cfu/mL in Mueller-Hinton media and 100 μL were inoculated into each well of a U-bottom 96-well plate (BD Biosciences, BD351177) containing 100 μL of compound solution. Plates were incubated statically at 37° C. for 72 hours upon which time wells were evaluated visually for bacterial growth. The MIC was determined as the lowest concentration of compound resulting in no bacterial growth visible to the naked eye, based on the majority of three independent experiments. Positive and negative aqueous and media controls were conducted for each trial.

[2] = system: Staphylococcus aureus MSSA (SH1000); assay: as above; assay type: cell-based; details: read-out: MIC S. aureus
Experimental: as §1, §2, §3, §4

[3] = system: Pseudomonas aeruginosa (PAO1); assay: as above; assay type: cell-based
Experimental: as §1, §2, §3, §4

[4] = system: Escherichia coli (MC4100); assay: as above; assay type: cell-based; details: read-out: MIC E. coli
Experimental: as §1, §2, §3, §4

E. faecalis biofilms = assay: Minimum biofilm eradication concentration (MBEC), regrowth assay; assay type: cell-based, Enterococcus faecalis; details: for MBEC E. faecalis: Table 2, pre-established biofilm, ± values varied between 50 and 100 μM for the six trials; for eradication of E. faecalis biofilms (in words): at the concentrations tested
Excerpt: (§5) A regrowth assay was used to establish the MBEC of a compound to evaluate the antibiofilm activity. See also H. Ceri, M. Olson, D. Morck, D. Storey, R. Read, A. Buret, B. Olson, Methods Enzymol. 2001, 337, 377.
(§6) Encouraged by the potency of the QACs against planktonic bacterial cells, the inventors then evaluated the efficacy of compound (12,2,12) against Staphylococcus aureus and Enterococcus faecalis biofilms. […] To both accurately evaluate the antibiofilm activity, a regrowth assay was utilized to establish the minimum biofilm eradication concentration (MBEC) of each compound.
(§7) Different biological assays were performed. For all biological assays, laboratory strains of methicillin-susceptible Staphylococcus aureus MSSA (SH1000), Enterococcus faecalis (OG1RF), Escherichia coli (MC4100), Pseudomonas aeruginosa (PAO1), community-acquired methicillin-resistant Staphylococcus aureus CA-MRSA (USA300-0114), and hospital-acquired methicillin-resistant Staphylococcus aureus HA-MRSA (ATCC 33591) were grown at 37° C. overnight from freezer stocks in 10 mL of the media indicated for each assay. All cultures, with the exception of E. faecalis, were grown with shaking at 250 rpm.
(§8) Minimum biofilm eradication concentration (MBEC) was also measured. To each well of a flat-bottomed 96-well plate (Corning 3370), 8 μL of overnight bacterial culture was brought to a volume of 200 μL with fresh media (BHI for S. aureus and MRSA, Todd Hewitt (TH) for E. faecalis). Plates were incubated statically for 24 hours at 37° C. to establish biofilms. After 24 hours, the wells were carefully emptied by inverting the plate and gently shaking. A pre-mixed solution of media and aqueous compound stock solution was added to each well and plates were incubated at 37° C. 16 hours after pre-established biofilms were treated with compound, the media from each well was removed, biofilms were washed three times with 200 μL PBS to remove planktonic cells, and biofilms were incubated overnight at 37° C. in 200 μL of fresh media to allow any viable cells to continue growing. The wells were then vigorously pipetted to resuspend the biofilm cells and the OD at 595 nm was measured using a plate reader (POLARstar Omega, BMG Labtech). Biofilms reaching a final OD of less than 0.1 were considered eradicated and the lowest concentration of antibiotic corresponded to the MBEC. Four replicates were completed for each concentration of compound as well as positive and negative controls.

[5] = system: S. aureus (MSSA, SH1000) biofilms; assay: as above; assay type: cell-based, Staphylococcus aureus; details: for MBEC S. aureus: Table 2, pre-established biofilm, ± values varied between 50 and 100 μM for the six trials; for eradication of S. aureus biofilms (in words): at the concentrations tested
Excerpt: as §5, §6, §7, §8

[6] = Pseudomonas aeruginosa, PAO1, read-out: MIC P. aeruginosa
[7] = Table 3, read-out: MIC P. aeruginosa
[8] = Table 1, read-out: MIC P. aeruginosa

Row | MIC ([1]; Table 3) [µM] | MIC ([2]; Table 3) [µM] | MIC [3, 7] [µM] | MIC ([4]; Table 3) [µM] | Structure (SMILES) | also measured
1 |  |  |  |  | NCCCNCCCN [Norspermidine, reference compound] | MIC ([1]; Enterococcus faecalis): > 500 µM; MIC ([2]; Staphylococcus aureus, MSSA): > 500 µM; MIC [3, 6]: > 500 µM; MIC ([4]; Escherichia coli): > 500 µM; MBEC E. faecalis (E. faecalis biofilms): >200 µM; MBEC S. aureus [5]: >200 µM
2 | 1 | 1 | 16 | 4 | CCCCCCCCCCCCCC[N+](C)(C)CCCCC[N+](C)(C)CCCCCCCCCCCCCC.[Br-].[Br-] [14, 5, 14] | 
3 |  |  |  |  | C[N+](C)(C)CC[N+](C)(C)C [1,2,1] | MIC ([1]; Table 1): >500 µM; MIC ([2]; Table 1): >500 µM; MIC [3, 8]: >500 µM; MIC ([4]; Table 1): >500 µM; MBEC E. faecalis (E. faecalis biofilms): >200 µM; eradication of E. faecalis biofilms (in words) (E. faecalis biofilms): unable to eradicate biofilms; MBEC S. aureus [5]: >200 µM; eradication of S. aureus biofilms (in words) [5]: unable to eradicate biofilms
4 | 8 | 8 | 32 | 8 | CCCCCCCCCCCC[N+](C)(C)CCN(C)CCN(C)CCN(C)C.[Br-] [N4-12,0,0, 0] | 
5 | 4 | 2 | 63 | 8 | CCCCCCCCCC[N+](C)(C)CCCCC[N+](C)(C)CCCCCCCCCC.[Br-].[Br-] [10, 5, 10] | 
6 |  |  |  |  | C[N+](C)(C)CCCCC[N+](C)(C)C [1,5,1] | MIC ([1]; Table 1): >500 µM; MIC ([2]; Table 1): >500 µM; MIC [3, 8]: >500 µM; MIC ([4]; Table 1): >500 µM; MBEC E. faecalis (E. faecalis biofilms): >200 µM; eradication of E. faecalis biofilms (in words) (E. faecalis biofilms): unable to eradicate biofilms; MBEC S. aureus [5]: >200 µM; eradication of S. aureus biofilms (in words) [5]: unable to eradicate biofilms
7 | 1 | 1 | 8 | 2 | CCCCCCCCCCCC[N+](C)(C)CCCCCCC[N+](C)(C)CCCCCCCCCCCC.[Br-].[Br-] [12, 7, 12] | 
8 |  |  |  |  | CCCCCCCCCCCC[N+](C)(C)CCCCCCCCCCCC.[Br-] [12,12] | MIC ([1]; Table 1): 1 µM; MIC ([2]; Table 1): 1 µM; MIC [3, 8]: 32 µM; MIC ([4]; Table 1): 8 µM; MBEC E. faecalis (E. faecalis biofilms): 200 µM; MBEC S. aureus [5]: >200 µM
9 | 1 | 1 | 8 | 2 | CCCCCCCCCCCCCC[N+](C)(C)CCN(C)CCN(C)CC[N+](C)(C)CCCCCCCCCCCC.[Br-].[Br-] [N4-14,0,0, 12] | 
10 | 2 | 4 | 32 | 16 | CCCCCCCCCCCCCCCC[N+](C)(C)CCN(C)CC[N+](C)(C)CCCCCCCCCCCCCCCC.[Br-].[Br-] [16, 2, 0, 2, 16] | 
11 | 1 | 2 | 16 | 4 | CCCCCCCCCCCCCC[N+](C)(C)CCN(C)CC[N+](C)(C)CCCCCCCCCCCCCC.[Br-].[Br-] [14, 2, 0, 2, 14] | 
12 |  |  |  |  | CCCCCCCCCCC[n+]1ccc(-c2cc[n+](CCCCCCCCCCC)cc2)cc1 [PQ-11,11] | MIC ([1]; Enterococcus faecalis): 1 µM; MIC ([2]; Staphylococcus aureus, MSSA): 1 µM; MIC [3, 6]: 4 µM; MIC ([4]; Escherichia coli): 1 µM; MBEC E. faecalis (E. faecalis biofilms): 50 µM; MBEC S. aureus [5]: 50 µM
13 | 8 | 2 | 63 | 8 | CCCCCCCCCC[N+](C)(C)CCN(C)CC[N+](C)(C)CCCCCCCCCC.[Br-].[Br-] [10, 2, 0, 2, 10] | 
14 | 1 | 2 | 16 | 2 | CCCCCCCCCCCCCC[N+](C)(C)CCN(C)CCN(C)CC[N+](C)(C)CCCCCCCCCCCCCC.[Br-].[Br-] [N4-14,0,0, 14] | 
15 | 16 | 16 | 125 | 32 | CCCCCCCCCCCCCC[N+](C)(C)CCN(C)CCN(C)CCN(C)C.[Br-] [N4-14,0,0, 0] | 

Row | Structure (SMILES) | MIC ([1]; Table 3) [µM] | MIC ([2]; Table 3) [µM] | MIC [3, 7] [µM] | MIC ([4]; Table 3) [µM] | also measured
16 | C=CC[N+](C)(CC[N+](C)(C)CCCCCCCCCCCCCCCC)CC[N+](C)(C)CCCCCCCCCCCCCCCC.[Br-].[Br-].[Br-] [16, 2, 3A, 2, 16] | 4 | 4 | 16 | 8 | 
17 | CCCCCCCCCCCCCC[N+](C)(C)CC[N+](C)(C)CC[N+](C)(C)CCCCCCCCCCCCCC.[Br-].[Br-].[I-] [14, 2, 1, 2, 14] | 1 | 1 | 8 | 2 | 
18 | C=CC[N+](C)(CC[N+](C)(C)CCCCCCCCCCCCCC)CC[N+](C)(C)CCCCCCCCCCCCCC.[Br-].[Br-].[Br-] [14, 2, 3A, 2, 14] | 2 | 2 | 8 | 2 | 
19 | CCCCCCCCCCC[N+](C)(C)CCN(C)CC[N+](C)(C)CCCCCCCCCCC.[Br-].[Br-] [11, 2, 0, 2, 11] | 2 | 2 | 8 | 2 | 
20 | C=CC[N+](C)(CC[N+](C)(C)CCCCCCCCCCC)CC[N+](C)(C)CCCCCCCCCCC.[Br-].[Br-].[Br-] [11, 2, 3A, 2, 11] | 2 | 1 | 16 | 2 | 
21 | CCCCCCCCCCC[N+](C)(C)CC[N+](C)(C)CC[N+](C)(C)CCCCCCCCCCC.[Br-].[Br-].[I-] [11, 2, 1, 2, 11] | 2 | 2 | 8 | 4 | 
22 | CCCCCCCCCC[N+](C)(C)CC[N+](C)(C)CC[N+](C)(C)CCCCCCCCCC.[Br-].[Br-].[I-] [10, 2, 1, 2, 10] | 8 | 2 | 63 | 8 | 
23 | C=CC[N+](C)(CC[N+](C)(C)CCCCCCCCCC)CC[N+](C)(C)CCCCCCCCCC.[Br-].[Br-].[Br-] [10, 2, 3A, 2, 10] | 4 | 2 | 63 | 2 | 
